Results as given in patent US20070173493A1, “1-Oxadibenzo[e,h]azulenes for the treatment of central nervous system diseases and disorders” (Pliva-Istrazivacki Institut d.o.o., priority 2003, published 2007).

Legend:
5-HT2A receptor = target: T1, 5-HT2A receptor (Homo sapiens, UniProt P28223); assay: radioligand binding assay for 5-HT2A receptor ([3H]-ketanserin competitive binding); settings: human cortex or recombinant 5-HT2A receptor expressed in CHO-K1 cells
T1 construct: expressed in transfected cells; host or cells: CHO-K1 (alternatively human cortex tissue)
T1 sequence (P28223 whole entry): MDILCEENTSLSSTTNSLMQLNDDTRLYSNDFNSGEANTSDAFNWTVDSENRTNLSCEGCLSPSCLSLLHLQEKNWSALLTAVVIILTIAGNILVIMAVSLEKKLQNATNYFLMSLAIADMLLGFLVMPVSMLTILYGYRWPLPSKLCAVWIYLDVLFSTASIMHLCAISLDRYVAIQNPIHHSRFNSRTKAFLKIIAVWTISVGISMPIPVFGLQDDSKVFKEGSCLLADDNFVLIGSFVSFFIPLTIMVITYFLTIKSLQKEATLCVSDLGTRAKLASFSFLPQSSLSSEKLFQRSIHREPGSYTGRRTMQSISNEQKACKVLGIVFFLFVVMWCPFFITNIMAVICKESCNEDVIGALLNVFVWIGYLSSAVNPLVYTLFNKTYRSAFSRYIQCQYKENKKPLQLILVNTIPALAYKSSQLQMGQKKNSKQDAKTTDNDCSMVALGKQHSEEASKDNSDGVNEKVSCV
Procedure: (§1) The effect of the compounds of the present invention on the neurochemical steady state was determined by in vitro investigations such as a radionuclide-marked radioligand binding assay for 5-HT2A (Bonhaus D. W. Br. J. Pharmacol. 1995, 115:622; Saucier C. J. Neurochem. 1997, 68:1998) and 5-HT2C receptors (Wolf W. A. J. Neurochem. 1997, 69:1449), in vitro binding assay for the σ1 receptor (Thomson W. and Donn R. Arthritis Res. 2002, 4: 302-306) and by in vivo investigations in a tail suspension test (Vogel H. G. and Vogel W. H. Drug Discovery and Evaluation Pharmacological Assays, Springer 1997, 304), in amphetamine-induced hyperlocomotion in mice (Millan M. J. et al, 1998 J Pharmacol. Exp. Ther. 287: 167-186), in a forced swim test in mice (Porsolt R. D. et al. Arch. Int. Pharmacodyn. 1977, 229:327-336), in meta-chlorophenyl piperazine (m-CPP) test on rats (Drug Dev. Res. 1989, 18:119-144), and in apomorphine, tryptamine, norepinephrine (ATN) test in rats (Arch. […]
(§2) A small concentration of a radioligand having a great affinity for binding to a receptor was incubated with a tissue sample enriched with a certain receptor (1-5 mg of tissue) in a buffered medium (0.2-5 mL). […] When a binding balance was achieved, the receptors to which the radioligand was bound were separated from those to which said ligand was not bound, and the radioactivity of the receptor/radioligand complex was measured. […]

5-HT2C receptor = target: T2, 5-HT2C receptor (Homo sapiens, UniProt P28335); assay: radioligand binding assay for 5-HT2C receptor ([3H]-mesulergine competitive binding); settings: choroid plexus or recombinant 5-HT2C receptor expressed in CHO-K1 cells
T2 construct: expressed in transfected cells; host or cells: CHO-K1 (alternatively choroid plexus tissue)
T2 sequence (P28335 33-458): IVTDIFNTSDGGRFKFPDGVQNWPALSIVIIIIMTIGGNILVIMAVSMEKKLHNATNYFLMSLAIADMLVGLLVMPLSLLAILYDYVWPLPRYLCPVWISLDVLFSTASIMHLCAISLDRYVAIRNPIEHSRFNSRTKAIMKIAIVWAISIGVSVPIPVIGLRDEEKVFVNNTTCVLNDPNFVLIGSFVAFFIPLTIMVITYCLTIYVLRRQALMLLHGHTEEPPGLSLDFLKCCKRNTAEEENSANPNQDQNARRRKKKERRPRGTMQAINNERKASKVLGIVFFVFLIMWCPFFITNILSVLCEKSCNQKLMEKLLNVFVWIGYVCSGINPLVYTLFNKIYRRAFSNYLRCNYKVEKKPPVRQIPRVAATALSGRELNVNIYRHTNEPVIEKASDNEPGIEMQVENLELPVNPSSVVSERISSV
Procedure: as §1, §2

IC50 (5-HT2A receptor; read-out: binding affinity to 5-HT2A serotonin receptor expressed as IC50 value): < 200 nM
Ki (5-HT2A receptor; read-out: binding affinity to 5-HT2A serotonin receptor, Ki value): < 100 nM
IC50 (5-HT2C receptor; read-out: binding affinity to 5-HT2C serotonin receptor expressed as IC50 value): < 200 nM
Ki (5-HT2C receptor; read-out: binding affinity to 5-HT2C serotonin receptor, Ki value): < 100 nM
SMILES: CN(C)CCOCc1cc2c(o1)-c1cc(Cl)ccc1Oc1ccccc1-2 [[2-(11-chloro-1,8-dioxa-dibenzo[e,h]azulen-2-ylmethoxy)-ethyl]-dimethyl-amine]
